According to ChEMBL document CHEMBL1201862, “PubChem BioAssay data set” (2004):
Active and inactive are the calls of the source.

Columns and labels:
[1] = target: T1, Small ubiquitin-related modifier 1 (Homo sapiens, UniProt P63165); assay: SUMO1 protein-protein binding blockers, potency – biochemical, FRET, dose response (AID 624383); format: functional; conditions: read-out: IC50_Mean
[2] = target: T2, Caspase-6 (Homo sapiens, UniProt P55212); assay: inhibition of CASP6 peptide cleavage – biochemical, VEID-R110 fluorescence, cherry-pick, dose response (AID 720632)
T2 sequence (P55212 whole entry): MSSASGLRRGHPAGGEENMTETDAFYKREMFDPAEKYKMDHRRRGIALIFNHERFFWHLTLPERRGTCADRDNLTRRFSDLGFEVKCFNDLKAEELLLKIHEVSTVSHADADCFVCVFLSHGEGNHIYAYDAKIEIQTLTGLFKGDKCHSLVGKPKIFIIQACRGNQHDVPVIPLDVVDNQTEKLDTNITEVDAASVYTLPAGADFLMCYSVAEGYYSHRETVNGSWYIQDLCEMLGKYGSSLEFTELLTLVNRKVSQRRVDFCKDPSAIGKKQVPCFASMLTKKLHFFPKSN

[3] = target: T1, Small ubiquitin-related modifier 1; assay: SUMO1 protein interaction blockers, potency – biochemical, fluorescence polarization, uHTS hits, dose response (AID 624382); format: functional; conditions: read-out: IC50_Mean
[4] = target: Large T antigen (Simian virus 40, UniProt P03070); format: functional, Betapolyomavirus macacae;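 further: Confirmatory-stage PubChem screen for compounds that inhibit SV40 T antigen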
[5] = target: T3, RNA-binding protein pos-1 (Caenorhabditis elegans, UniProt G5EF15); assay: disruptors of C. elegans POS-1 RNA interaction – biochemical, fluorescence polarization, dose response (AID 1964);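 further: purified POS-1 fused to maltose binding protein made in E. coli; potency of compounds blocking POS-1 binding to fluorescent RNA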
T3 sequence (G5EF15 whole entry): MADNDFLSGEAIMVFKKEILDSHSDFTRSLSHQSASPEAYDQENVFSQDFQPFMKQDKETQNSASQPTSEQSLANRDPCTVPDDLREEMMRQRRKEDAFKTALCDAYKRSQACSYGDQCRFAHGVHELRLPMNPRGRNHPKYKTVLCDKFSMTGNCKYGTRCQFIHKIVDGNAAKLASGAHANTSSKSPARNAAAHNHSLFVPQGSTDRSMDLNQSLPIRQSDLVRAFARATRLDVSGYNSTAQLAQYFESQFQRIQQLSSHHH

[6] = target: T4, Zinc finger protein mex-5 (Caenorhabditis elegans, UniProt Q9XUB2); assay: potency of MEX-5 RNA-binding blockers – biochemical, C. elegans, fluorescence polarization, dose response (AID 1960)
T4 sequence (Q9XUB2 whole entry): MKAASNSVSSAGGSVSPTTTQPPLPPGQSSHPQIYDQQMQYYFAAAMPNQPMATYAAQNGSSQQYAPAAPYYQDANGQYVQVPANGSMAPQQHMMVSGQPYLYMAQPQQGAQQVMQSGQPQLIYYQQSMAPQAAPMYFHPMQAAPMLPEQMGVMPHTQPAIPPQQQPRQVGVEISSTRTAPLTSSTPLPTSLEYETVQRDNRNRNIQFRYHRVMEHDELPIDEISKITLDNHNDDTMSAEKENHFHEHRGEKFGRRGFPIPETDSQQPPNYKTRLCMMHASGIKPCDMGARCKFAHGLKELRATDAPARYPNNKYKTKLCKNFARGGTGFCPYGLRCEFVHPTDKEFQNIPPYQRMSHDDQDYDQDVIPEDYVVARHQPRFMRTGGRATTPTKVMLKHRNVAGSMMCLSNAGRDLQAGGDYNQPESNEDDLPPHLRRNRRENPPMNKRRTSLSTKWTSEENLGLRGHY

[7] = Counterscreen for antagonists of the orexin 1 receptor (OX1R; HCRTR1): Fluorescence-based cell-based high throughput dose response assay to identify antagonists of the parental CHO cell line. [Related pubchem assays (depositor defined):AID434989, AID435008, AID463079, AID485270, AID492963, AID492964, AID492965, AID493232, AID504699, AID504701]; format: functional
[8] = target: T5, Orexin/Hypocretin receptor type 1 (Homo sapiens, UniProt O43613); assay: Homogeneous Time Resolved Fluorescence (HTRF)-based cell-based high throughput dose response assay for antagonists of the orexin 1 receptor (OX1R; HCRTR1). [Related pubchem assays (depositor defined):AID434989, AID435008, AID463079, AID485270, AID492963, AID492964, AID492965, AID493232, AID504717, AID504718]; format: functional
T5 sequence (O43613 whole entry): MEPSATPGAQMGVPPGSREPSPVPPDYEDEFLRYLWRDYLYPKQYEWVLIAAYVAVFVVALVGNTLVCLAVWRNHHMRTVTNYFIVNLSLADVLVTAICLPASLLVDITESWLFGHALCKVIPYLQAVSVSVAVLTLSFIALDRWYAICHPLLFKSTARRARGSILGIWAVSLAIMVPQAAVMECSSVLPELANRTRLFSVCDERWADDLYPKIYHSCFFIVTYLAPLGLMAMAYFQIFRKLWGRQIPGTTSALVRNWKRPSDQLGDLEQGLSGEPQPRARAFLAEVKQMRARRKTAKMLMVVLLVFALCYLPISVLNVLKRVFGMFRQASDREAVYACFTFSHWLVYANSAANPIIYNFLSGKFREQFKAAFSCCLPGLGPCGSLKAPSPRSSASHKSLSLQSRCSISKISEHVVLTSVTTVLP

[9] = tested on: CHO-K1; assay: Counterscreen for antagonists of the orexin 1 receptor (OX1R; HCRTR1): Homogeneous time resolved fluorescence (HTRF)-based cell-based dose response assay to identify antagonists of the parental CHO-K1 cell line. [Related pubchem assays (depositor defined):AID434989, AID435008, AID463079, AID485270, AID492963, AID492964, AID492965, AID493232, AID504699, AID504701]; format: functional; conditions: Cricetulus griseus;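 further: potency for inhibition of ATP-stimulated IP1 production as antagonists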
[10] = target: Peroxisome proliferator-activated receptor gamma/Nuclear receptor coactivator 3 (Homo sapiens, UniProt P37231); assay: TR-FRET dose response biochemical High Throughput Screening assay for agonists of the steroid receptor coactivator 3 (SRC-3) recruitment by the peroxisome proliferator-activated receptor gamma (PPAR gamma): non-selective agonists. [Related pubchem assays: 1301 (Confirmation screen.), 1048 (Primary screen.)]; format: functional
[11] = target: T5, Orexin/Hypocretin receptor type 1; assay: Fluorescence-based cell-based high throughput dose response assay for antagonists of the orexin 1 receptor (OX1R; HCRTR1). [Related pubchem assays (depositor defined):AID434989, AID435008, AID463079, AID485270, AID492963, AID492964, AID492965, AID493232, AID504717, AID504718]; format: functional
[12] = target: T6, Orexin receptor type 2 (Homo sapiens, UniProt O43614); assay: Counterscreen assay for antagonists of the orexin 1 receptor (OX1R; HCRTR1): Fluorescence-based cell-based dose response assay for antagonists of the orexin 2 receptor (OX2R; HCRTR2), run by assay provider.; format: functional
T6 sequence (O43614 whole entry): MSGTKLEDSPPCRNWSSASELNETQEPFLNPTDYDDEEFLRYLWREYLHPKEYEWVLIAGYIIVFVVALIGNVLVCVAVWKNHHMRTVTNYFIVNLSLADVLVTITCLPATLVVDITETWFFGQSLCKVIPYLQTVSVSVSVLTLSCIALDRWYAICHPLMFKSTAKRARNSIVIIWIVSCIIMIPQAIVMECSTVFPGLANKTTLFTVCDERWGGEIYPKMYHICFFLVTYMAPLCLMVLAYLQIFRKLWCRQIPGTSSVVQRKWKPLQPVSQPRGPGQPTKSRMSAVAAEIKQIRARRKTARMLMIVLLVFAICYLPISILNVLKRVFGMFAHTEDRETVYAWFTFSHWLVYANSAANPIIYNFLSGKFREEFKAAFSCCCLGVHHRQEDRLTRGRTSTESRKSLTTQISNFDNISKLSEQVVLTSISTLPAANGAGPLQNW

[13] = target: T6, Orexin receptor type 2; assay: Counterscreen assay for antagonists of the orexin 1 receptor (OX1R; HCRTR1): Homogeneous Time Resolved Fluorescence (HTRF)-based cell-based dose response assay for antagonists of the orexin 2 receptor (OX2R; HCRTR2), run by assay provider.; format: functional
[14] = target: Peroxisome proliferator-activated receptor gamma/Nuclear receptor coactivator 2 (Homo sapiens, UniProt P37231); assay: TR-FRET dose response biochemical High Throughput Screening assay for agonists of the steroid receptor coactivator 2 (SRC-2) recruitment by the peroxisome proliferator-activated receptor gamma (PPAR gamma): non-selective agonists. [Related pubchem assays: 1297, 1032 ]; format: functional
[15] = target: Peroxisome proliferator-activated receptor gamma/Nuclear receptor coactivator 1 (Homo sapiens, UniProt P37231); assay: TR-FRET dose response biochemical High Throughput Screening assay for agonists of the steroid receptor coactivator 1 (SRC-1) recruitment by the peroxisome proliferator-activated receptor gamma (PPAR gamma): non-selective agonists. [Related pubchem assays (depositor defined):AID1300, AID1808, AID504735, AID631]; format: protein assay
[16] = target: T7, Long-chain-fatty-acid--AMP ligase FadD28 (Mycobacterium tuberculosis, UniProt P9WQ59); assay: Fluorescence polarization aasay to screen for inhibitors that compete for the binding of FadD28 to a bisubstrate Measured in Biochemical System Using Plate Reader - 2147-01_Inhibitor_Dose_CherryPick_Activity.; format: functional, Mycobacterium tuberculosis H37Rv
T7 sequence (P9WQ59 whole entry): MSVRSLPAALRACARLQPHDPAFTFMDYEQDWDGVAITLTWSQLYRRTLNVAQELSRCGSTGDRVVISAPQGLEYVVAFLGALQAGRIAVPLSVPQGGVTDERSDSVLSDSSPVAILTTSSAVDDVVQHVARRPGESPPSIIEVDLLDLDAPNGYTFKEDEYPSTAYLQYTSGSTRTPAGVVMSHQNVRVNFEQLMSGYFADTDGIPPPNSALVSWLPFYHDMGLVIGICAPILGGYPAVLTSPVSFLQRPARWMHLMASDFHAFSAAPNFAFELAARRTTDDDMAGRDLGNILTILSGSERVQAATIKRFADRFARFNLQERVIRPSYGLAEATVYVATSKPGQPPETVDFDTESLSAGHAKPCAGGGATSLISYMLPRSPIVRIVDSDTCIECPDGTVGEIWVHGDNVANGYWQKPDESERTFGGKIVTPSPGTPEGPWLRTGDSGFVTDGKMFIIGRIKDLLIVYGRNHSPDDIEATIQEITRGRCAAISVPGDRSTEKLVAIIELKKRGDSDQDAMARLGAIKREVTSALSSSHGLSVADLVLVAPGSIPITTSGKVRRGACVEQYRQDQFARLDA

[17] = target: Arf-GAP with SH3 domain, ANK repeat and PH domain-containing protein 1 (Homo sapiens, UniProt Q9ULH1); format: functional;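 further: biochemical fluorescence polarization dose–response screen measuring inhibition of ASAP1; ASAP1 GAP domain stimulating GTP hydrolysis by truncated human ARF1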
[18] = activation of miR-122 Renilla sensor silencing – cell-based, Huh7 psiCHECK-miR122, Renilla luciferase, cherry-picked, dose response (AID 651956); format: functional;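 further: huh7 hepatoma cells stably carrying a psiCHECK-2 miR-122 sensor plasmid; renilla luciferase signal reporting endogenous miR-122 activity after 48 h compound exposure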
[19] = target: FAD-linked sulfhydryl oxidase ALR (Homo sapiens, UniProt P55789); assay: ALR-catalysed DTT oxidation blockers – biochemical, H2O2 detection, luminescence, cherry-pick, dose response (AID 493248)
[20] = target: Cytochrome P450 2C19 (Homo sapiens, UniProt P33261); assay: Cytochrome panel assay with activity outcomes. Panel member name: p450-cyp2c19 Compounds with AC50 equal or less than 10 uM are considered active; format: functional; conditions: read-out: AC50
[21] = target: Cytochrome P450 2D6 (Homo sapiens, UniProt P10635);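 further: CYP2D6 member of a cytochrome P450 panel assay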

T1 sequence (P63165 whole entry): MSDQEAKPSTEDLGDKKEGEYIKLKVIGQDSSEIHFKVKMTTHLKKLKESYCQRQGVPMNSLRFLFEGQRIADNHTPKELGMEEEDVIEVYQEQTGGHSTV
Peroxisome proliferator-activated receptor gamma/Nuclear receptor coactivator 2, sequence (P37231 whole entry): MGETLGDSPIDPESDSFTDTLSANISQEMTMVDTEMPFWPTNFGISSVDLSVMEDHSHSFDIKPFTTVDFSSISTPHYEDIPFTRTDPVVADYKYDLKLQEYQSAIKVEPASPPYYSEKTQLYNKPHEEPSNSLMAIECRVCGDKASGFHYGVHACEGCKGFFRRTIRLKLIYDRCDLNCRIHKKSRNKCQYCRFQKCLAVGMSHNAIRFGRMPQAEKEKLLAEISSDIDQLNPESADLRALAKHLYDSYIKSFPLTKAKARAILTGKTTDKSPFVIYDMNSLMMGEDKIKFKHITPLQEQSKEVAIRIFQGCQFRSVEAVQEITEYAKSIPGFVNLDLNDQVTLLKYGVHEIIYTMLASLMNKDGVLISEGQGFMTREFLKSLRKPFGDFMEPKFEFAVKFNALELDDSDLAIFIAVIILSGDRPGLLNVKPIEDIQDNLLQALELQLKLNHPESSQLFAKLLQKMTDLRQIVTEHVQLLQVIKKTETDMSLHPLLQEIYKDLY
Peroxisome proliferator-activated receptor gamma/Nuclear receptor coactivator 2, sequence (Q15596 whole entry, further chain): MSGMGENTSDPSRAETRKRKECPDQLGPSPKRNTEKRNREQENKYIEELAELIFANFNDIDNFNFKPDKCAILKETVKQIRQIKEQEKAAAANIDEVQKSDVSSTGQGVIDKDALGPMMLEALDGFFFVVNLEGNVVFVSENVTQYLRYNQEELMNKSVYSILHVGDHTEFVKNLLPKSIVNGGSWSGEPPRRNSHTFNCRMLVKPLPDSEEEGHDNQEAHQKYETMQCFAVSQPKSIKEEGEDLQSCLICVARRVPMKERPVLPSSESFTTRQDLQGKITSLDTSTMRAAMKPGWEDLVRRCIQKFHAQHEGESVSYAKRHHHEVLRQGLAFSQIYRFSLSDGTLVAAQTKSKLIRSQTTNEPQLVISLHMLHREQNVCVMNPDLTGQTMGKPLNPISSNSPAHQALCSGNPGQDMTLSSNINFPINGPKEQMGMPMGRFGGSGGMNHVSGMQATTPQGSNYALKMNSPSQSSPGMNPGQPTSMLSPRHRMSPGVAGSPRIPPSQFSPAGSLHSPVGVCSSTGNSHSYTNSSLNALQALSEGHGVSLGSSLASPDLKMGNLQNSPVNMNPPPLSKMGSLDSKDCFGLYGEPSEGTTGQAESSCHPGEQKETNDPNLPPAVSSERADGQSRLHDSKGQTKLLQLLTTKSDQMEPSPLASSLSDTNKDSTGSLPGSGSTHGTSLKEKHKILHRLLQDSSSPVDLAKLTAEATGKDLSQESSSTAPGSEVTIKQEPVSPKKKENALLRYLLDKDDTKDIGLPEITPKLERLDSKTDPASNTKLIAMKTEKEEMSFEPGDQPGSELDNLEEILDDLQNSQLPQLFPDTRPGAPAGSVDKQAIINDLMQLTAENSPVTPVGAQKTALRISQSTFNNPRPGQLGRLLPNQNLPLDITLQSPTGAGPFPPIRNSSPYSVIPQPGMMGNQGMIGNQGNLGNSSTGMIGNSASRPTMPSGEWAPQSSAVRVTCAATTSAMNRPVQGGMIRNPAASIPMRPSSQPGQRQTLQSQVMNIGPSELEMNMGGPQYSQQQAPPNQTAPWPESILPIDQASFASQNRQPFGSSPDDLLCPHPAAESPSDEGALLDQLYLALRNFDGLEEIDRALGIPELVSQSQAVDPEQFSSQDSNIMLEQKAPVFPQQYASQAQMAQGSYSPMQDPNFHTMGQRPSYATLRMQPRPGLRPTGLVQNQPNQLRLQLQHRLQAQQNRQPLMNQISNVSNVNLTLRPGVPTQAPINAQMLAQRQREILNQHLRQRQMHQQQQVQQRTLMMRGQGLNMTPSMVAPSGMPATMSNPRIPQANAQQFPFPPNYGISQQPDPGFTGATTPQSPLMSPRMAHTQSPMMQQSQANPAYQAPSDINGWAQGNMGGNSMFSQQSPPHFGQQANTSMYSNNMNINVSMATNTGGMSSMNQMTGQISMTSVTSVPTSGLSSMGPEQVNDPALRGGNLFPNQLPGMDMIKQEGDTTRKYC
Peroxisome proliferator-activated receptor gamma/Nuclear receptor coactivator 1, sequence (P37231 whole entry): as the sequence (P37231 whole entry) above
Peroxisome proliferator-activated receptor gamma/Nuclear receptor coactivator 1, sequence (Q15788 whole entry, further chain): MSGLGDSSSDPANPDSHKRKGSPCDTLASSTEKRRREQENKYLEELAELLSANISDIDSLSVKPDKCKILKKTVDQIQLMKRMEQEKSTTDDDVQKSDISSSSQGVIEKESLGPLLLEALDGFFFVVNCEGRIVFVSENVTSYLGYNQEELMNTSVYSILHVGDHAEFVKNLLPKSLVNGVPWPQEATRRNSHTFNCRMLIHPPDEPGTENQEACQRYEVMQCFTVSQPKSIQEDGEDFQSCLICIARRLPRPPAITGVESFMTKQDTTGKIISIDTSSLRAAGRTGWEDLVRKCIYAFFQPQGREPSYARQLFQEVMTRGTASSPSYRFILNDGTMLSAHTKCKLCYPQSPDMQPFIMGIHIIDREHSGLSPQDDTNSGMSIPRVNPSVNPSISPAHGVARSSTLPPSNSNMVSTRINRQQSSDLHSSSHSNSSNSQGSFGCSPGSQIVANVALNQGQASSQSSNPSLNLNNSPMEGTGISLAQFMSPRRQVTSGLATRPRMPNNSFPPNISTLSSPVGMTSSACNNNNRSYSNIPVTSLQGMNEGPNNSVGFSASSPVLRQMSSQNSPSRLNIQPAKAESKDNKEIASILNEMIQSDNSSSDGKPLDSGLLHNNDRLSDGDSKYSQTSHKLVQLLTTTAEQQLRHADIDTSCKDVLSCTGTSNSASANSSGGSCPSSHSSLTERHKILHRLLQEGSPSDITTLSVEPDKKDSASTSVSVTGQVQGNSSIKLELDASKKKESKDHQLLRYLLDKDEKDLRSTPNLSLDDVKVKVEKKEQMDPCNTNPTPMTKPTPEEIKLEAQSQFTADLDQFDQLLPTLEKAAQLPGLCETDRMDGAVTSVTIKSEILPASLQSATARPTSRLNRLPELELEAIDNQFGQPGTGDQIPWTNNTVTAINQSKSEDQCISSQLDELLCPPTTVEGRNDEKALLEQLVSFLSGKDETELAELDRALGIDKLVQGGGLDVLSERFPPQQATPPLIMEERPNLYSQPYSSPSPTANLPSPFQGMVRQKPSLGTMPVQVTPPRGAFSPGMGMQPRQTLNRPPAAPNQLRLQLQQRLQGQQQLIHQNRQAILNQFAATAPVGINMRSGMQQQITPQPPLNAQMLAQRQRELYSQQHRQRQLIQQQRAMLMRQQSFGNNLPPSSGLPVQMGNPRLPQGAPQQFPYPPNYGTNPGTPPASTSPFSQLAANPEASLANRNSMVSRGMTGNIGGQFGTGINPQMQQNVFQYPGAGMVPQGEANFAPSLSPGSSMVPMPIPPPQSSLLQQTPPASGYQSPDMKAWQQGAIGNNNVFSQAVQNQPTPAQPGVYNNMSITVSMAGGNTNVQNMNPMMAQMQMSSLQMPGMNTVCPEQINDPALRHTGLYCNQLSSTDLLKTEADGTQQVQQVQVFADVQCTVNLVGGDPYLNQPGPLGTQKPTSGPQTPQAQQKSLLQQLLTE
Cytochrome P450 2C19, sequence (P33261 whole entry): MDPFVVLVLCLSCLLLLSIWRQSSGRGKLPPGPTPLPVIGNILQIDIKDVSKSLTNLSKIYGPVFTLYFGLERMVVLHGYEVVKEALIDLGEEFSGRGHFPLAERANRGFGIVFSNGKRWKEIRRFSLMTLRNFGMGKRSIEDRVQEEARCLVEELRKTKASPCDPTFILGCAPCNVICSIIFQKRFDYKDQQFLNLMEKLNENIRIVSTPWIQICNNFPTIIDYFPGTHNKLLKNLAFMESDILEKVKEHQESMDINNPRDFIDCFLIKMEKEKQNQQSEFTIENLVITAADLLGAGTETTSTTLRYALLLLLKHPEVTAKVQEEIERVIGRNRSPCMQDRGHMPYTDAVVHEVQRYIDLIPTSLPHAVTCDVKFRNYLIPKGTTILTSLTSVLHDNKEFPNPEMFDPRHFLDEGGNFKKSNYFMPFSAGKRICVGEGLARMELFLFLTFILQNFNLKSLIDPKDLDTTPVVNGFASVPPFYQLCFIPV
FAD-linked sulfhydryl oxidase ALR, sequence (P55789 whole entry): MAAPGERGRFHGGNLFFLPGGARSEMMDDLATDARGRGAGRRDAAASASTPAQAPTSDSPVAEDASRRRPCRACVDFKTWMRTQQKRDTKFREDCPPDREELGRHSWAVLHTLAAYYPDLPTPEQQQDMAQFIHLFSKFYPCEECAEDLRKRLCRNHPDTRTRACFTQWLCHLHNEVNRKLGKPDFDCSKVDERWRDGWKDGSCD

| SMILES | IC50 [7] | IC50 [8] | IC50 [9] | IC50 [11] | IC50 [12] | IC50 [13] | AC50 [16] | also measured |
| --- | --- | --- | --- | --- | --- | --- | --- | --- |
| COc1cc(/C=C2\CCc3c2nc2ccccc2c3C(=O)O)cc(OC)c1OC | – | – | – | – | – | – | – | IC50 [1]: 12.5 µM (active); AC50 [2]: 6.8 µM (active); IC50 [3]: > 66.6 µM (inactive); IC50 [4]: 35 µM (active); EC50 [5]: 94 µM (active); EC50 [6]: 34.8 µM (active) |
| Cc1cc(SCC(=O)c2ccc3c(c2)OCO3)nc2ccccc12 | > 49.7 µM (inactive) | 3.34 µM (active) | > 66.2 µM (inactive) | 18.8 µM (inactive) | 14.1 µM (inactive) | 11.2 µM (inactive) | – | EC50 [10]: > 79.4 µM (not active); EC50 [14]: 10.4 µM (not active); EC50 [15]: 10.2 µM (inactive) |
| CC[C@]12c3[nH]c4cc(-c5ccco5)ccc4c3CCN1C(=O)[C@@H](CC(=O)NC/C=C(\C)CCC=C(C)C)C[C@@H]2C(=O)N1CCN(C(=O)c2ccco2)CC1 | > 49.8 µM (inactive) | 1.07 µM (active) | > 66.2 µM (inactive) | 3.23 µM (active) | 39.5 µM (inactive) | 2.05 µM (active) | – | – |
| Cc1ccc(NC(=O)CN2C(=O)S/C(=C\c3cc(C)n(-c4cccc(C(=O)O)c4)c3C)C2=O)cc1 | – | – | – | – | – | – | 2.03 µM (active) | EC50 [5]: > 300 µM (not active); EC50 [6]: > 300 µM (not active) |
| COc1ccc([N+](=O)[O-])cc1NC(=O)c1ccc(-n2nc(C)cc2C)cc1 | – | – | – | – | – | – | – | IC50 [17]: 28 µM (inactive) |
| Cc1ccccc1N(CC(=O)NC1CCCC1)C(=O)c1oc(C(C)(C)C)cc1C | > 49.8 µM (inactive) | 0.264 µM (active) | > 66.2 µM (inactive) | 3.52 µM (active) | > 88.8 µM (inactive) | > 50 µM (inactive) | – | – |
| COc1cccc(CNC(=O)COc2cc(O)c3c(c2)OC(C)(C)CC3=O)c1 | – | – | – | – | – | – | 79.7 µM (active) | – |
| CN1C(=O)c2cc(NC(=O)c3cccc(F)c3)ccc2OC[C@H]2O[C@H](CC(=O)O)CC[C@H]21 | – | – | – | – | – | – | – | AC50 [18]: 0.366 µM (active) |
| COc1ccc(C(=O)NCc2ccc(C)cc2)cc1S(=O)(=O)N1CCOCC1 | – | – | – | – | – | – | 64.8 µM (active) | – |
| OCc1ccc(-c2nn(Cc3ccccc3)c3ccccc23)o1 | – | – | – | – | – | – | – | AC50 [19]: 10 µM (active); AC50 [18]: 0.547 µM (active); AC50 [20]: 10 µM (inconclusive); AC50 [21]: 39.8 µM (inconclusive) |
